From patent US6921824B1, “Ruthenium dimeric complexes suitable as antimetastatic and antineoplastic agents” (priority 1999, dated 2005)

Tested on: MCa mammary carcinoma
Test: Post-surgical treatment: inhibition of lung metastases at advanced stage of growth, MCa mammary carcinoma
Type: in vivo, CBA mice
Conditions: for Lung metastases Number % T/C / Lung metastases weight % T/C: Treated/Control; for Lung metastases Number / Lung metastases Weight: evaluated day 28; for Growth of the lung metastases (in words): post-surgical treatment at LD0.05 dosages
Method: In vivo testing of the activity of the compounds according to the present invention in mice affected by MCa mammary carcinoma: inhibition activity of lung metastases at an advanced stage of growth.
Five groups of CBA kin female mice weighing 23±3 g were inoculated with […] viable MCa mammary carcinoma cells (as determined by trypan blue exclusion) in 0.05 ml Dulbecco's pH 7.4 buffered calcium- and magnesium-free solution (PBS) by intramuscular injection with a sterile insulin syringe. The tumour cells were derived from donors of the same strain injected with the same tumour cells and with the same procedures 2 weeks before. The suspension of tumour cells was prepared in PBS by mechanical mincing of the tumour mass obtained from donor mice, and further removal of tissue debris and cells was obtained, respectively, by filtration through a double layer of sterile gauze and centrifugation at 250× g for 10 minutes. Kin animals were obtained from a colony from Chester Beatthy from London (UK) and were grown in the University of Trieste animal house accordingly to the procedures accepted for the rearing of kin animals. The MCa mammary carcinoma tumour cell-line was derived from a stock, stored in liquid nitrogen, of tumour cells originally obtained from Rudjer Boskovic Institute of Zagreb (HR).
On day 14 since tumour cells implantation, the primary tumour was surgically removed, after general anesthesia of the animals by intraperitoneal injection of 125 mg/kg of Ketamine.
From day 15 to day 20 after tumour cells implantation, the five mice groups were treated, intraperitoneally with a sterile insulin syringe, respectively with: • Group 1 Control (7 animals): 10 ml/kg of body weight/day of sterile and pyrogen-free physiological solution; • Group 2 (7 animals): 28 mg/kg of body weight/day of the compound as prepared in Example 4 in sterile and pyrogen-free physiological solution; • Group 3 (7 animals): 28 mg/kg of body weight/day of the compound as prepared in Example 7 in sterile and pyrogen-free physiological solution; • Group 4 (7 animals): 51 mg/kg of body weight/day of the compound as prepared in Example 8 in sterile and pyrogen-free physiological solution; • Group 5 (7 animals): 52 mg/kg of body weight/day of the compound as prepared in Example 10 in sterile and pyrogen-free physiological solution.
The dosages corresponding to the LD0.05, calculated separately in animals of the same strain and gender and having the same body weight, was administered intraperitoneally for 6 consecutive days, according to the method of Lichtfield and Wilcoxon, and with an observation time of 10 days since last dose.
On day 28 since tumour cells implantation, the mice were sacrificed by cervical dislocation for the evaluation of lung metastases. The lungs were abducted from the animals immediately after sacrifice, divided in single lobes that were soon examined with a low-magnification microscope equipped with a graduated ocular-grid for the measurement of metastases size, where the orthogonal axes a and b (a≦b) were identified. The metastases were then classified by size and the metastatic tumour weight for each animal was calculated as the sum of each single metastasis weight, each of them considered as a rotation solid developed around the above mentioned axes according to the formula (π/6)·a^2·b. The experimental data obtained were then processed by appropriate statistical tests.
The results are reported in Table 2, where the number and weight of lung metastases obtained in groups of animals treated with the compounds of the present invention with respect to the group of controls treated with sterile and pyrogen-free physiological solution, are shown.

[1] = 28 mg/kg of body weight/day i.p. day 15-20, post-surgical
[2] = 52 mg/kg of body weight/day i.p. day 15-20, post-surgical
[3] = 51 mg/kg of body weight/day i.p. day 15-20, post-surgical

Row | Molecule | Lung metastases Number % T/C [1] | Lung metastases weight % T/C [1] | Lung metastases Number [1] | Lung metastases Weight [1] | Growth of the lung metastases (in words) | Lung metastases Number % T/C [2] | Lung metastases weight % T/C [2] | Lung metastases Number [2] | Lung metastases Weight [2] | Lung metastases Number % T/C [3] | Lung metastases weight % T/C [3] | Lung metastases Number [3] | Lung metastases Weight [3]
1 | C[SH](C)(=O)[Ru-]([Cl])([Cl])([Cl])([Cl])[n+]1cc[n+]([Ru-]([Cl])([Cl])([Cl])([Cl])[SH](C)(C)=O)cc1.[Na+].[Na+] [Example 4, [Na]2[trans-RuCl4(Me2SO)]2(μ-pyz)] | 80% | 39% | 41.4 ± 8.0 | 96 ± 20 mg | reduce significantly |  |  |  |  |  |  |  | 
2 | C[SH](C)(=O)[Ru-]([Cl])([Cl])([Cl])([Cl])[n+]1ccc[n+]([Ru-]([Cl])([Cl])([Cl])([Cl])[SH](C)(C)=O)c1.[Na+].[Na+] [Example 7, [Na]2[trans-RuCl4(Me2SO)]2(μ-pym)] | 78% | 44% | 40.4 ± 7.4 | 107 ± 31 mg | reduce significantly |  |  |  |  |  |  |  | 
3 | C[SH](C)(=O)[Ru-]([Cl])([Cl])([Cl])([Cl])[n+]1ccc(CCc2cc[n+]([Ru-]([Cl])([Cl])([Cl])([Cl])[SH](C)(C)=O)cc2)cc1.[Na+].[Na+] [Example 10, [Na]2[trans-RuCl4(Me2SO)]2(μ-etbipy)] |  |  |  |  | reduce significantly | 53% | 29% | 27.8 ± 7.8 | 71 ± 20 mg |  |  |  | 
4 | [Na]2[trans-RuCl4(Me2SO)]2(μ-bipy) [Example 8] |  |  |  |  | reduce significantly |  |  |  |  | 40% | 31% | 20.6 ± 7.3 | 76 ± 31 mg
